Measured values taken from US9499493B2, “2,4-pyrimidinediamine compounds and their uses” (Rigel Pharmaceuticals, Inc., priority 2002, dated 2016).
Where two headings read alike, the source gives them in different places.

How the values were obtained:
[1] = Exposure to skin and eyes; details: in vivo
Source text: (§1) A short discussion of key toxicology studies is provided.

[2] = 14-day repeat-dose intranasal toxicity study in Cynomolgus monkeys; format: in vivo
Procedure: A 14-day repeat-dose intranasal toxicity study in Cynomolgus monkeys was performed at doses of 2.1, 4.5 or 6.3 mg/kg/day. In life parameters included: clinical observations, body weights, food consumption, ophthalmology, blood pressure, electrocardiography, hematology, clinical chemistry, urinalysis, immunotoxicological assessment, gross necropsy, organ weights, toxicokinetic assessments and histopathology (including the nasal cavity).

[3] = system: FcγRI-mediated degranulation; assay: FcγRI receptor-mediated degranulation (activation with anti-human IgG Fab fragment); format: cell-based; details: cells not primed with IgE, activated with rabbit anti-human IgG Fab fragment
[4] = system: CHMC cells; assay: anti-IgE-induced calcium ion flux in CHMC cells; format: cell-based, human; details: 10 μM compound
[5] = Sheep model of allergic asthma (Ascaris suum challenge); format: in vivo
Procedure: Sheep develop bronchoconstriction within minutes of exposure to inhaled antigen (Ascaris suum), with maximal airflow obstruction during the early allergic response (EAR). Release of preformed mast cell mediators is likely responsible for this early phase of airflow obstruction. […] In the sheep, AHR develops a few hours following antigen challenge, and can persist for up to 2 weeks.
In the sheep model of allergic asthma, sheep are administered aerosols of test article via an endotracheal tube, followed by an aerosol challenge with antigen extracted from the roundworm, Ascaris suum, to which the sheep are naturally allergic. Allergen challenge leads to direct bronchoconstriction (both EAR and LAR) and a persistent non-specific AHR. These three characteristics are similar to those seen in human allergic asthmatics. The activity of the test agent is determined by changes in the lung resistance (RL), which is calculated from measurements of transpulmonary pressure, flow, and respiratory volume. […] The LAR is a less pronounced increase in RL, which starts approximately 5-6 hours following allergen challenge and is resolved by 8 hours post-challenge. Twenty-four hours after the challenge, a dose response to carbachol is measured to determine the AHR, which is expressed as the dose of carbachol required to increase RL by 400% over baseline. (This measurement is referred to as the provocative concentration of carbachol that elicits a 400% increase in RL over baseline (PC400). The data are compared to historical control data for the same individual when administered a saline control aerosol and challenged with Ascaris suum.

[6] = Immediacy (time course) of inhibitory activity; format: cell-based; details: FIG. 5
[7] = 14-day repeat-dose intranasal toxicity study in New Zealand White rabbits; format: in vivo
Procedure: A 14-day repeat-dose intranasal toxicity study in New Zealand White rabbits was performed at doses of 1.7, 3.4 or 5.0 mg/kg/day. In life parameters included: clinical observations, body weights, food consumption, ophthalmology, hematology, clinical chemistry, gross necropsy, organ weights, toxicokinetic assessments and histopathology (including the nasal cavity).

[8] = Genetic toxicology testing
Source text: as §1

[9] = Core safety pharmacology battery (cardiovascular, respiratory, central nervous system function); details: in vivo
Source text: as §1

[10] = system: CHMC cells; assay: Phosphorylation of proteins downstream of Syk / LYN kinase in the FcεRI cascade, activated CHMC cells; format: cell-based, human; details: varying concentrations, FIG. 10
[11] = system: BMMC cells; assay: Phosphorylation of proteins downstream of Syk kinase in the IgE receptor cascade, activated BMMC cells; format: cell-based, mouse; details: varying concentrations, FIG. 7
[12] = system: CHMC cells; assay: ionomycin-induced calcium ion flux in CHMC cells; format: cell-based, human; details: 10 μM compound
[13] = system: IgE-induced degranulation of tissue mast cells; assay: Mouse model of passive cutaneous anaphylaxis (PCA); format: in vivo; details: for % Inhibition (PCA) / Plasma level: PO
Procedure: (§2) This model provides a direct measure of IgE-induced degranulation of tissue mast cells. In this model, IgE primed animals are exposed to an allergen challenge, and the change in permeability of dermal vasculature that results from histamine release from mast cells is measured by change in the amount of dye leakage into surrounding tissue. Inhibition of mediator release by compounds that modulate mast cell degranulation is easily measured by extracting the dye from the tissue.
(§3) In the PCA assay mice are passively sensitized by intradermal injection with anti-dinitrophenol (DNP) IgE antibodies (Day −1). At predetermined times animals are treated with the test agent (Day 0). The modulatory effect of the agent on cutaneous mast cell degranulation is measured following intravenous injection of DNP conjugated to human serum albumin (HSA-DNP), together with Evans blue dye. The resulting cross-linking of the IgE receptor and subsequent mast cell degranulation-induced increase in vascular permeability is determined by measuring the amount of dye extravasation into the tissue. Dye is extracted from the tissue by formamide, and the absorbance of this extract is read at 620 nm.

[14] = target: Syk kinase (Homo sapiens (Human), UniProt P43405); assay: Isolated Syk kinase: phosphorylation of a peptide substrate or endogenous substrate (LAT); details: increasing concentrations; FIG. 8
[15] = 14-day repeat-dose toxicity studies (summary of non-clinical safety program); format: in vivo, rabbits and primates; mice and rats
Source text: as §1

[16] = system: cultured human mast cells (CHMC); assay: CHMC low cell density ionomycin activation: hexosaminidase (Hexos.) release; format: cell-based
[17] = system: basophil cells; assay: Basophil ionomycin activation: histamine release assay; format: cell-based, human; details: Basophils
Procedure: (§4) The basophil activation assay was carried out using whole human peripheral blood from donors allergic to dust mites with the majority of the red blood cells removed by dextran sedimentation. Human peripheral blood was mixed 1:1 with 3% dextran T500 and RBCs were allowed to settle for 20-25 min. The upper fraction was diluted with 3 volumes of D-PBS and cells were spun down for 10 min at 1500 rpm, RT. Supernatant was aspirated and cells were washed in an equal volume MT-buffer. Finally, cells were resuspended in MT-buffer containing 0.5% DMSO in the original blood volume. 80 uL cells were mixed with 20 uL compound in the presence of 0.5% DMSO, in triplicate, in a V-bottom 96-well tissue culture plate. A dose range of 8 compound concentrations was tested resulting in a 10-point dose response curve including maximum (stimulated) and minimum (unstimulated) response. […] The cells were stimulated for 30 minutes at 37° C., 5% CO2. The plate was spun for 10 min at 1500 rpm at room temperature and 80 uL the supernatant was harvested for histamine content analysis using the histamine ELISA kit supplied by Immunotech. The ELISA was performed according to supplier's instructions.
Assays for ionomycin-induced basophil cell degranulation were carried out as described for the Basophil IgE or Dustmite Activation Assay (Section 6.4.6, supra), with the exception that following incubation with compound, cells were stimulated with 20 μl of 2 μM ionomycin.

[18] = system: cultured human mast cells (CHMC); assay: CHMC low cell density anti-IgE activation: hexosaminidase (Hexos.) release; format: cell-based
[19] = system: bone marrow derived mast cells (BMMC); assay: BMMC high cell density IgE activation: hexosaminidase; format: cell-based, mouse; details: anti-IgE, second part of TABLE 1, read-out: BMMC anti-IgE hexos. IC50
In short: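 IgE-sensitized BMMC at 1-3×10^6 cells/ml preincubated 1 hour at 37° C. with compound (0.5% DMSO), then stimulated 1 hour with DNP-BSA (6× stimulus 60 ng/ml). Supernatant hexosaminidase measured with 2 mM 4-methylumbelliferyl-N-acetyl-glucosaminide substrate at 37° C., read at 5–30 minutes.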

[20] = system: bone marrow derived mast cells (BMMC); assay: BMMC high cell density ionomycin activation: hexosaminidase; format: cell-based, mouse; details: second part of TABLE 1, read-out: BMMC Ionomycin hexos. IC50
[21] = system: basophil cells; assay: Basophil IgE activation: histamine release assay; format: cell-based, human; details: Basophils, anti-IgE
Procedure: as §4

[22] = system: Salmonella-Escherichia coli tester strains; details: Salmonella / Escherichia coli
[23] = in vitro chromosomal aberration assay
[24] = Pharmacokinetics / oral bioavailability in rats; format: in vivo; details: rat, in vivo
Procedure: Over 50 2,4-pyrimidinediamine compounds of the invention were tested for oral bioavailability. For the study, compounds were dissolved in various vehicles (e.g. PEG 400 solution and CMC suspension) for intravenous and oral dosing in the rats. Following administration of the drug, plasma samples were obtained and extracted. The plasma concentrations of the compounds were determined by high performance liquid chromatography/tandem mass spectrometry (LC/MS/MS) methods. Pharmacokinetic analyses were performed based on the plasma concentration data. The pharmacokinetic parameters of interest include Clearance (CL), Volume of distribution at steady-state (Vss), terminal half-life (t1/2), and oral bioavailability (% F).

[25] = Mouse model of passive cutaneous anaphylaxis (PCA); format: in vivo; details: mouse, plasma, PO, 1.5% Avicel/water, 200 mg/kg, read-out: Plasma level (duration of action)
Procedure: as §2, §3

[26] = format: in vivo; details: rat, 50, 150 and 300 mg/kg
[27] = in vivo; details: mouse, po
[28] = mouse, in vivo
[29] = 30 mg/sheep, pretreatment 15 min, 10% ethanol
[30] = 67% PEG/33% citrate buffer, pretreatment 10 min, 50 mg/kg
[31] = 67% PEG/33% citrate buffer, pretreatment 10 min, 100 mg/kg
[32] = 67% PEG/33% citrate buffer, pretreatment 10 min, 200 mg/kg

With Oc1cccc(Nc2ncc(F)c(Nc3cccc(O)c3)n2)c1 [R921218, N2,N4-Bis(3-hydroxyphenyl)-5-fluoro-2,4-pyrimidinediamine] the “effects after exposure to skin and eyes” value [1] was “nor were there untoward effects”, the NOAEL at 14 days ([2]; cynomolgus monkey, in vivo, inhaled or intranasal, intranasal, Cynomolgus monkeys, read-out: NOAEL (no observed adverse effect level)) was 6.3 mg/kg/day and the adverse findings ([2]; intranasal 2.1, 4.5 or 6.3 mg/kg/day) was “no adverse findings”. For the same molecule, the “FcγRI-mediated degranulation (in words)” value [3] was “inhibit FcγRI-mediated degranulation”, the “anti-IgE-induced Ca2+ flux” value [4] was “inhibited” and the “AHR (% inhibition)” value [5, 29] was 101%. The “EAR (% inhibition)” value [5, 29] was 66%, the “LAR (% inhibition)” value [5, 29] was 78% and the “EAR (in words)” value ([5]; aqueous suspension) was “failed to inhibit”. For the same molecule, the “onset of inhibitory activity” value [6] was “immediacy of the inhibitory activity”, the adverse findings ([7]; intranasal 1.7, 3.4 or 5.0 mg/kg/day) was “no adverse findings” and the NOAEL at 14 days ([7]; rabbit, in vivo, inhaled or intranasal, intranasal, New Zealand White rabbits, read-out: NOAEL (no observed adverse effect level)) was 5 mg/kg/day. For the same molecule, the “mutagenic or clastogenic potential” value [8] was “no evidence for mutagenic or clastogenic potential”, the “findings in core safety pharmacology battery” value [9] was “no adverse findings” and the “phosphorylation of proteins downstream of Syk kinase” value [10] was “inhibit”. The “phosphorylation of various proteins downstream of Syk kinase” value [11] was “inhibit”, the “ionomycin-induced Ca2+ flux” value [12] was “no effect” and the “% Inhibition (PCA)” value [13, 30] was 7%. For the same molecule, the Plasma level [13, 30] was 3 µg/mL, the “% Inhibition (PCA)” value [13, 31] was 11% and the Plasma level [13, 31] was 4 µg/mL. For the same molecule, the “% Inhibition (PCA)” value [13, 32] was 50%, the Plasma level [13, 32] was 18 µg/mL and the “FcεR-mediated vascular leakage with increasing doses (in words)” value ([13]; solution (67% PEG/33% citrate buffer) or aqueous suspension (1.5% Avicel)) was “dose-dependent inhibition”. The “Syk kinase phosphorylation of a peptide substrate” value [14] was “dose responsive inhibition”, the “Syk kinase phosphorylation of an endogenous substrate (LAT)” value [14] was “dose responsive inhibition” and the “dose limiting toxicity, intranasal route, non-rodents (rabbits and primates)” value [15] was “no dose limiting toxicity”. The “dose limiting toxicity, oral route, rodents (mice and rats)” value [15] was “no dose limiting toxicity”.

Fc1cnc(Nc2ccc(N3CCOCC3)cc2)nc1Nc1ccc(N2CCOCC2)cc1 [R926114, N2,N4-Bis[4-(N-morpholino)phenyl]-5-fluoro-2,4-pyrimidinediamine] gave an IC50 [16] of 8.1 µM, an IC50 [17] of 10 µM and an IC50 [18] of 3.43 µM. For the same molecule, the IC50 [19] was > 10 µM, the IC50 [20] was > 10 µM and the IC50 [21] was 1.7 µM.

For Nc1cccc(Nc2ncc(F)c(Nc3cccc(N)c3)n2)c1 [R921302, N2,N4-Bis(3-aminophenyl)-5-fluoro-2,4-pyrimidinediamine], the “FcγRI-mediated degranulation (in words)” value [3] was “inhibit FcγRI-mediated degranulation”, the Ames test result [22] was “test positive in tester strain TA98 with S9 and TA1537, with and without metabolic activation” and the clastogenic potential [23] was “not clastogenic”. The “metabolic stability in pharmacokinetics studies (in words)” value [24] was “most metabolically stable compound”, the concentration at 30 min ([25]; pretreatment 30 min) was 88 µg/mL and the concentration at 60 min ([25]; pretreatment 60 min) was 53 µg/mL. It also gave a concentration at 120 min ([25]; pretreatment 120 min) of 61 µg/mL, a concentration at 240 min ([25]; pretreatment 240 min) of 8 µg/mL and a Plasma level ([13]; 1.5% Avicel/water, pretreatment 60 min, 50 mg/kg) of 25 µg/mL. It also gave a Plasma level ([13]; 1.5% Avicel/water, pretreatment 60 min, 100 mg/kg) of 38 µg/mL, a Plasma level ([13]; 1.5% Avicel/water, pretreatment 60 min, 150 mg/kg) of 64 µg/mL and a Plasma level ([13]; 1.5% Avicel/water, pretreatment 60 min, 200 mg/kg) of 105 µg/mL. The “time prior to antigen-induced receptor signaling over which vascular permeability was inhibited before efficacy began to decrease” value ([13]; mouse, in vivo) was 1 to 2 h, the “tolerability, oral doses for 32 days” value [26] was “appeared to be well tolerated” and the NOAEL at 14 days [27] was 100 mg/kg. For the same molecule, the “oral dose tolerated for up to 7-days” value [28] was 1000 mg/kg, the “tolerability, 28-day oral toxicity study” value ([28]; 100 mg/kg) was “appeared to be well tolerated” and the “tolerability, 28-day oral toxicity study” value ([28]; 300 mg/kg) was “not tolerated”.
